Data: patent US20150307938A1, “METHOD TO IDENTIFY A NOVEL CLASS OF IMMUNOLOGIC ADJUVANTS” (Lancell, L.L.C., priority 2011, published 2015)

Tested on: skin
Test: Affymetrix microarray of skin, DBP-4 hr and analogs vs. untreated; gene selection by log-2 fold change, Wilcoxon, Kendall tau (Tables 8, 9)
Assay type: in vivo, mouse
Settings: for Kendall: Kendall tau coefficient

In the case of `CCCCOC(=O)c1ccccc1C(=O)OCCCC` [DBP, dibutylphthalate], the Wilcoxon (2310016C08Rik NM_001190461_at, DBP-4 hr vs. untreated) is reported as “Yes”, the Kendall (2310016C08Rik NM_001190461_at) is reported as “No” and the Wilcoxon (Adam8 NM_007403_at, DBP-4 hr vs. untreated) is reported as “Yes”. For the same compound, the Kendall (Adam8 NM_007403_at) was “Yes”, the Wilcoxon (Atf3 NM_007498_at, DBP-4 hr vs. untreated) was “Yes” and the Kendall (Atf3 NM_007498_at) was “No”. For the same compound, the Wilcoxon (Birc3 NM_007464_at, DBP-4 hr vs. untreated) was “No”, the Kendall (Birc3 NM_007464_at) was “No” and the Wilcoxon (Btg2 NM_007570_at, DBP-4 hr vs. untreated) was “Yes”. The Kendall (Btg2 NM_007570_at) was “Yes”, the Wilcoxon (Casp4 NM_007609_at, DBP-4 hr vs. untreated) was “Yes” and the Kendall (Casp4 NM_007609_at) was “No”. The Wilcoxon (Cd44 NM_001039150_at, DBP-4 hr vs. untreated) was “No”, the Kendall (Cd44 NM_001039150_at) was “No” and the Wilcoxon (Cd44 NM_001039151_at, DBP-4 hr vs. untreated) was “No”. For the same compound, the Kendall (Cd44 NM_001039151_at) was “No”, the Wilcoxon (Cebpd NM_007679_at, DBP-4 hr vs. untreated) was “Yes” and the Kendall (Cebpd NM_007679_at) was “No”. For the same compound, the Wilcoxon (Csf2rb NM_007780_at, DBP-4 hr vs. untreated) was “No”, the Kendall (Csf2rb NM_007780_at) was “Yes” and the Wilcoxon (Cxcl1 NM_008176_at, DBP-4 hr vs. untreated) was “Yes”. The Kendall (Cxcl1 NM_008176_at) was “No”, the “1600029D21Rik (NM_029639_at) Wilcoxon” value (DBP-4 hr vs. untreated) was “Yes” and the “2010002N04Rik (NM_134133_at) Wilcoxon” value (DBP-4 hr vs. untreated) was “Yes”. The “2310016C08Rik (NM_023516_at) Wilcoxon” value (DBP-4 hr vs. untreated) was “Yes”, the “1810011010Rik (NM_026931_at) Wilcoxon” value (DBP-4 hr vs. untreated) was “Yes” and the “Abcc3 (NM_029600_at) Wilcoxon” value (DBP-4 hr vs. untreated) was “No”. For the same compound, the “Acot5 (NM_145444_at) Wilcoxon” value (DBP-4 hr vs. untreated) was “Yes”, the “Adamts4 (NM_172845_at) Wilcoxon” value (DBP-4 hr vs. untreated) was “Yes” and the “Akap12 (NM_031185_at) Wilcoxon” value (DBP-4 hr vs. untreated) was “No”. The “Angptl4 (NM_020581_at) Wilcoxon” value (DBP-4 hr vs. untreated) was “Yes”, the “Arc (NM_018790_at) Wilcoxon” value (DBP-4 hr vs. untreated) was “Yes” and the “Arid5a (NM_145996_at) Wilcoxon” value (DBP-4 hr vs. untreated) was “Yes”. For the same compound, the “Arid5a (NR_033310_at) Wilcoxon” value (DBP-4 hr vs. untreated) was “Yes”, the “Bcar3 (NM_013867_at) Wilcoxon” value (DBP-4 hr vs. untreated) was “No” and the “Bcl3 (NM_033601_at) Wilcoxon” value (DBP-4 hr vs. untreated) was “Yes”. The “Bhlhe40 (NM_011498_at) Wilcoxon” value (DBP-4 hr vs. untreated) was “No”, the “Calcb (NM_054084_at) Wilcoxon” value (DBP-4 hr vs. untreated) was “No” and the “Ccl1 (NM_011329_at) Wilcoxon” value (DBP-4 hr vs. untreated) was “Yes”. The “Ccl2 (NM_011333_at) Wilcoxon” value (DBP-4 hr vs. untreated) was “Yes”, the “Ccl3 (NM_011337_at) Wilcoxon” value (DBP-4 hr vs. untreated) was “Yes” and the “Ccl7 (NM_013654_at) Wilcoxon” value (DBP-4 hr vs. untreated) was “Yes”. The “Ccl9 (NM_011338_at) Wilcoxon” value (DBP-4 hr vs. untreated) was “Yes”, the “Ccl12 (NM_011331_at) Wilcoxon” value (DBP-4 hr vs. untreated) was “Yes” and the “Ccl17 (NM_011332_at) Wilcoxon” value (DBP-4 hr vs. untreated) was “Yes”. For the same compound, the “Ccl20 (NM_016960_at) Wilcoxon” value (DBP-4 hr vs. untreated) was “Yes”, the “Cd86 (NM_019388_at) Wilcoxon” value (DBP-4 hr vs. untreated) was “Yes” and the “Cd207 (NM_144943_at) Wilcoxon” value (DBP-4 hr vs. untreated) was “Yes”. The “Clec4e (NM_019948_at) Wilcoxon” value (DBP-4 hr vs. untreated) was “Yes”, the “Clec7a (NM_020008_at) Wilcoxon” value (DBP-4 hr vs. untreated) was “Yes” and the “Clec4d (NM_010819_at) Wilcoxon” value (DBP-4 hr vs. untreated) was “Yes”. For the same compound, the “Clic4 (NM_013885_at) Wilcoxon” value (DBP-4 hr vs. untreated) was “No”, the “Crem (NM_013498_at) Wilcoxon” value (DBP-4 hr vs. untreated) was “Yes” and the “Cxcl16 (NM_023158_at) Wilcoxon” value (DBP-4 hr vs. untreated) was “Yes”. For the same compound, the “Cyr61 (NM_010516_at) Wilcoxon” value (DBP-4 hr vs. untreated) was “Yes”, the “Cytip (NM_139200_at) Wilcoxon” value (DBP-4 hr vs. untreated) was “No” and the “Dusp6 (NM_026268_at) Wilcoxon” value (DBP-4 hr vs. untreated) was “Yes”. For the same compound, the “Dusp7 (NM_153459_at) Wilcoxon” value (DBP-4 hr vs. untreated) was “No”, the “Epgn (NM_053087_at) Wilcoxon” value (DBP-4 hr vs. untreated) was “Yes” and the “Gzmb (NM_013542_at) Wilcoxon” value (DBP-4 hr vs. untreated) was “Yes”. For the same compound, the “Havcr2 (NM_134250_at) Wilcoxon” value (DBP-4 hr vs. untreated) was “Yes”, the “Ier2 (NM_010499_at) Wilcoxon” value (DBP-4 hr vs. untreated) was “No” and the “Ier3 (NM_133662_at) Wilcoxon” value (DBP-4 hr vs. untreated) was “Yes”. For the same compound, the “Ifi202b (NM_011940_at) Wilcoxon” value (DBP-4 hr vs. untreated) was “Yes”, the “Il1f6 (NM_019450_at) Wilcoxon” value (DBP-4 hr vs. untreated) was “Yes” and the “Il6 (NM_031168_at) Wilcoxon” value (DBP-4 hr vs. untreated) was “Yes”. The “Il20 (NM_021380_at) Wilcoxon” value (DBP-4 hr vs. untreated) was “Yes”, the “Jdp2 (NM_030887_at) Wilcoxon” value (DBP-4 hr vs. untreated) was “No” and the “Jun (NM_010591_at) Wilcoxon” value (DBP-4 hr vs. untreated) was “No”. For the same compound, the “Klk6 (NM_011177_at) Wilcoxon” value (DBP-4 hr vs. untreated) was “Yes”, the “Klrb1b (NM_030599_at) Wilcoxon” value (DBP-4 hr vs. untreated) was “No” and the “Krt25 (NM_133730_at) Wilcoxon” value (DBP-4 hr vs. untreated) was “Yes”. The “Krt27 (NM_010666_at) Wilcoxon” value (DBP-4 hr vs. untreated) was “Yes”, the “Krt35 (NM_016880_at) Wilcoxon” value (DBP-4 hr vs. untreated) was “No” and the “Krt71 (NM_019956_at) Wilcoxon” value (DBP-4 hr vs. untreated) was “Yes”. For the same compound, the “Krtap4-16 (NM_001013823_at) Wilcoxon” value (DBP-4 hr vs. untreated) was “Yes”, the “LOC100044068 (XM_001473873_at) Wilcoxon” value (DBP-4 hr vs. untreated) was “Yes” and the “LOC100504977 (XM_003085794_at) Wilcoxon” value (DBP-4 hr vs. untreated) was “Yes”. For the same compound, the “Maff (NM_010755_at) Wilcoxon” value (DBP-4 hr vs. untreated) was “Yes”, the “Map3k6 (NM_016693_at) Wilcoxon” value (DBP-4 hr vs. untreated) was “No” and the “Mcoln2 (NM_026656_at) Wilcoxon” value (DBP-4 hr vs. untreated) was “Yes”. The “Mt1 (NM_013602_at) Wilcoxon” value (DBP-4 hr vs. untreated) was “No”, the “NA (AFFX-18SRNAMur/X00686_3_at) Wilcoxon” value (DBP-4 hr vs. untreated) was “Yes” and the “NA (AFFX-18SRNAMur/X00686_5_at) Wilcoxon” value (DBP-4 hr vs. untreated) was “Yes”. For the same compound, the “NA (AFFX-18SRNAMur/X00686_M_at) Wilcoxon” value (DBP-4 hr vs. untreated) was “Yes”, the “NA (AFFX-BioB-3_at) Wilcoxon” value (DBP-4 hr vs. untreated) was “Yes” and the “NA (AFFX-BioB-5_at) Wilcoxon” value (DBP-4 hr vs. untreated) was “Yes”. The “NA (AFFX-BioB-M_at) Wilcoxon” value (DBP-4 hr vs. untreated) was “Yes”.
